Assay results: US20110213025A1, “Catheter Lock Solutions Utilizing Tocopherol and Mid-Chain Fatty Acids” (ProviFlo, LLC, priority 2009, published 2011)

Assay: saturation point of dodecanoic acid in the liquid lock components at room temperature
Type: physicochemical
Settings: without heating, soluble in octanoic acid, decanoic and tocopherol, weight/volume
Text: In a fifth aspect of the present invention, a hydrophobic antimicrobial catheter lock solution includes alpha-tocopherol, in a concentration of 0% to 50% by volume/volume and mid-chain fatty acids. The fatty acids may include any combination of octanoic acid (0% to 25% volume/volume), decanoic acid (0% to 12.5% volume/volume), and/or dodecanoic acid (0% to 12.5% weight/volume). The combined formula after dissolving and mixing the chosen mid-chain fatty acid(s) is adjusted to a final volume with the alpha-tocopherol so that the solution has a viscosity greater than about 3 mPa·s. The lock has a viscosity in the range of about 3-5 mPa·s. Dodecanoic acid is a solid soluble in octanoic acid, decanoic and tocopherol. Concentrations of dodecanoic acid of less than about 25% dissolve readily without heating (i.e. 25% is approximately the saturation point of dodecanoic acid at room temperature). Optimal concentrations are most easily achieved by dissolution of dodecanoic acid in octanoic acid prior to adding the tocopherol. Of course, it is also possible to mix any or all of the liquid ingredients (i.e. octanoic acid and/or decanoic acid and/or tocopherol) together first and secondarily dissolve the dodecanoic acid. Alternatively, dodecanoic acid could be mixed with any of the liquids and the remaining liquid components added depending on the concentration of dodecanoic acid. […]

saturation point of dodecanoic acid: about 25%
Structure (SMILES): CCCCCCCCCCCC(=O)O [dodecanoic acid]
